Values quoted from earlier work as cited in publication PMC9240354, “Pharmacokinetics, Pharmacodynamics and Antiviral Efficacy of the MEK Inhibitor Zapnometinib in Animal Models and in Humans” (Frontiers in Pharmacology, 2022).

Legend:
[1] = test system: ERK phosphorylation; design: method as in Gilmartin et al., 2011; conditions: mouse tumor xenograft model; ref Gilmartin et al., 2011; cited from earlier work
[2] = test system: MEK; design: method as in Yang et al., 2010; conditions: single application, LOX melanoma tumor xenograft model; ref Yang et al., 2010; cited from earlier work

For `CC(=O)Nc1cccc(-n2c(=O)n(C3CC3)c(=O)c3c(Nc4ccc(I)cc4F)n(C)c(=O)c(C)c32)c1` [trametinib], the “inhibition of ERK phosphorylation in vivo” value [1] is listed as “sustained inhibition of ERK phosphorylation”.
In the case of `CCCS(=O)(=O)Nc1ccc(F)c(C(=O)c2c[nH]c3ncc(-c4ccc(Cl)cc4)cc23)c1F` [RG7204], the “MEK inhibition with decreasing plasma concentration” value [2] is listed as “remained at a relatively constant value up to 8 h post dose”.
